Experimental data taken from article PMC9049607 (Microbial Biotechnology, 2021).
Where two headings read alike, the source gives them in different places.

Columns and labels:
OYE2p = conditions: read-out: Enzyme / Y84V, 100 mM PBS pH 8.0, 30°C
AdhE = AdhE (Escherichia coli, UniProt P0A9Q7); test: NADH consumption at […] nm, specific activity; type: biochemical; conditions: 5 mM substrate, 0.2 mM NADH, 100 mM PBS pH 8.0, 30°C
YahK = target: T1, YahK (Escherichia coli, UniProt P75691); test: NADH consumption at […] nm, specific activity; type: biochemical; conditions: 5 mM substrate, 0.2 mM NADH, 100 mM PBS pH 8.0, 30°C
T1 sequence (P75691 1-349): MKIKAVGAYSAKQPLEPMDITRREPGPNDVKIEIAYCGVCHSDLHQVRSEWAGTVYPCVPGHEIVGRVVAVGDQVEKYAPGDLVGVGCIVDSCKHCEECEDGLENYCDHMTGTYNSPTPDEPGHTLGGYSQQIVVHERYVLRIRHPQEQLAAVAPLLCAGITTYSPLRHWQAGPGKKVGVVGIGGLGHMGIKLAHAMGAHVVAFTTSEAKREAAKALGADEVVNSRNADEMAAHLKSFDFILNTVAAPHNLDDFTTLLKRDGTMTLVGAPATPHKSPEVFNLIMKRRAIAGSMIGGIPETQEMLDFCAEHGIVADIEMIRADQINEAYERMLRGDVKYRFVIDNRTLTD

Sequence of AdhE (P0A9Q7 2-891): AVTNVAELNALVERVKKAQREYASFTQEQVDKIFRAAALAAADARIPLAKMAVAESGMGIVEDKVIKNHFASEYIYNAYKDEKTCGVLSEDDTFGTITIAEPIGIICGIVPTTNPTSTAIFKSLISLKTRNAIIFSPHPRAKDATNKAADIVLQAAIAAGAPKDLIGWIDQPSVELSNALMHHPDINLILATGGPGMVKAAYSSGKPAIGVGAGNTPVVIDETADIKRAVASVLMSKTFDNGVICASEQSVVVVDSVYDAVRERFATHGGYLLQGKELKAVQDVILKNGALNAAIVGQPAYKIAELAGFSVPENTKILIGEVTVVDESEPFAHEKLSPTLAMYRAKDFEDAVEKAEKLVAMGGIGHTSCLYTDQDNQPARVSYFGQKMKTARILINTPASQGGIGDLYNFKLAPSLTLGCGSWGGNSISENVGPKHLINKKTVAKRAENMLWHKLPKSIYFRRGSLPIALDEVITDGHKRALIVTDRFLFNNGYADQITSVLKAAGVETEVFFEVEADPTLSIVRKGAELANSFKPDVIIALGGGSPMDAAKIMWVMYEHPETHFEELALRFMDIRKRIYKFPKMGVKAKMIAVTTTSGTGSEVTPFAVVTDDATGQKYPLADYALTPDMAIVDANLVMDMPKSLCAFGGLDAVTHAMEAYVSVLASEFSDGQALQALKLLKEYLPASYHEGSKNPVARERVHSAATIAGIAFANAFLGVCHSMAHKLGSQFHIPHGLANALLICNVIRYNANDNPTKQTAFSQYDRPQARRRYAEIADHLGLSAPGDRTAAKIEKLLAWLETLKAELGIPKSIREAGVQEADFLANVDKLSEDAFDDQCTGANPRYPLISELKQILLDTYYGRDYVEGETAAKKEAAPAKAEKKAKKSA

With `CC(C)=CCC/C(C)=C/C=O` [(E)-citral] the Km (OYE2p; 0.2 mM NADH) was 107 ± 26 µM and the “NADH consumption at 340 nm, specific activity” value (“NADH consumption at 340 nm” below) (AdhE) was “these enzymes have catalytic activity for the tested substrates”.

In the case of `CC(C)=CCC/C(C)=C\C=O` [(Z)-citral], the Km (OYE2p; 0.2 mM NADH) is reported as 326 ± 84 µM.

`NC(=O)C1=CN([C@@H]2O[C@H](COP(=O)(O)OP(=O)(O)OC[C@H]3O[C@@H](n4cnc5c(N)ncnc54)[C@H](O)[C@@H]3O)[C@@H](O)[C@H]2O)C=CC1` [NADH] showed a Km (OYE2p; 5 mM (E/Z)-citral) of 27 ± 8 µM.

With `CC(C)=CCCC(C)CC=O` (stereo not drawn) [citronellal] the “NADH consumption at 340 nm” value (YahK) was “approximately twice higher than that of AdhE and YahK” and the “NADH consumption at 340 nm” value (AdhE) was “approximately twice higher than that of AdhE and YahK”.
